Earlier results, collected in paper PMC11370232, “Repurposing of a library for high-content screening of inhibitors against Echinococcus granulosus” (Parasites & Vectors, 2024).
Where a name gives a salt, the structure may show the parent alone.

Columns and labels:
[1] = system: Rac1 in MDA-MB-435 and MDA-MB-231 cells; design: method as in SelleckChem library description; conditions: ref SelleckChem library description; cited from earlier work
HER2 = system: HER2; design: method as in SelleckChem library description; conditions: ref SelleckChem library description; cited from earlier work
Bcl-2 = biological target: Bcl-2; design: method as in SelleckChem library description; conditions: cell-free assay; ref SelleckChem library description; cited from earlier work
EGFR = system: EGFR; design: method as in SelleckChem library description; conditions: ref SelleckChem library description; cited from earlier work
PDGFR = system: PDGFR; design: method as in SelleckChem library description; conditions: ref SelleckChem library description; cited from earlier work
p70S6K = system: p70S6K; design: method as in SelleckChem library description; conditions: ref SelleckChem library description; cited from earlier work
Akt2 = system: Akt2; design: method as in SelleckChem library description; conditions: ref SelleckChem library description; cited from earlier work
Akt3 = system: Akt3; design: method as in SelleckChem library description; conditions: ref SelleckChem library description; cited from earlier work
ROCKI = system: ROCKI; design: method as in SelleckChem library description; conditions: ref SelleckChem library description; cited from earlier work
Akt1 = system: Akt1; design: method as in SelleckChem library description; conditions: ref SelleckChem library description; cited from earlier work
ROCKII = system: ROCKII; design: method as in SelleckChem library description; conditions: ref SelleckChem library description; cited from earlier work
PKA = system: PKA; design: method as in SelleckChem library description; conditions: ref SelleckChem library description; cited from earlier work
Pim1 = system: Pim1; design: method as in SelleckChem library description; conditions: ref SelleckChem library description; cited from earlier work
Pim2 = system: Pim2; design: method as in SelleckChem library description; conditions: ref SelleckChem library description; cited from earlier work
Pim3 = system: Pim3; design: method as in SelleckChem library description; conditions: ref SelleckChem library description; cited from earlier work
DNA synthesis = biological target: DNA synthesis; design: method as in SelleckChem library description; conditions: cell-free assay; ref SelleckChem library description; cited from earlier work
CDK1, 2, 4, 6 and 9 = system: CDK1, 2, 4, 6 and 9; design: method as in SelleckChem library description; conditions: read-out: IC50, CDK1, 2, 4, 6 and 9; cell-free assays; ref SelleckChem library description; cited from earlier work
EGFR(L858R) = conditions: ref SelleckChem library description; cited from earlier work
EGFR(E746_A750) = system: EGFR(E746_A750); design: method as in SelleckChem library description; conditions: ref SelleckChem library description; cited from earlier work
glucokinase (GK) = biological target: glucokinase (GK); design: method as in SelleckChem library description; conditions: ref SelleckChem library description; read-out: EC50, glucokinase activation; cited from earlier work

## CCn1c2ccccc2c2cc(Nc3ccnc(NCCCN4CCOCC4)n3)ccc21 [EHop-016]
[1]
  IC50: 1100 nM

## CN(C)C/C=C/C(=O)Nc1cc2c(Nc3ccc(F)c(Cl)c3)ncnc2cc1O[C@H]1CCOC1 [Afatinib (BIBW2992) Dimaleate]
HER2
  IC50: 14 nM

## COC1=CC(c2cc3ccccc3[nH]2)=N/C1=C\c1[nH]c(C)cc1C [Obatoclax Mesylate (GX15-070), Obatoclax Mesylate]
Bcl-2
  Ki: 220 nM

## CC(C)(C)c1cc(C=C(C#N)C#N)cc(C(C)(C)C)c1O [Tyrphostin 9]
EGFR
  IC50: 460000 nM
PDGFR
  IC50: 500 nM

## NC[C@@](O)(c1ccc(Cl)cc1)c1ccc(-c2cn[nH]c2)cc1 [AT13148]
p70S6K
  IC50: 8 nM
Akt2
  IC50: 402 nM
Akt3
  IC50: 50 nM
ROCKI
  IC50: 6 nM
Akt1
  IC50: 38 nM
ROCKII
  IC50: 4 nM
PKA
  IC50: 3 nM

## CN1CCCN(C(=O)c2cccc(-c3ccc(/C=C4/C(=O)Nc5ccc(Cl)cc54)o3)c2)CC1 [CX-6258 HCl]
Pim1
  IC50: […]
Pim2
  IC50: 25 nM
Pim3
  IC50: 16 nM

## COc1cccc2c1C(=O)c1c(O)c3c(c(O)c1C2=O)C[C@@](O)(C(C)=O)C[C@@H]3O[C@H]1C[C@H](N)[C@H](O)[C@H](C)O1 [Daunorubicin HCl]
DNA synthesis
  Ki: 20 nM

## C=CC(=O)Nc1cccc(Oc2nc(Nc3ccc(N4CCN(C)CC4)cc3)ncc2Cl)c1 [WZ3146]
EGFR(L858R)
  IC50: 2 nM
EGFR(E746_A750)
  IC50: 2 nM

## O=C(Nc1ncc(SCCN2CCCC2)s1)[C@]1(c2ccc(S(=O)(=O)C3CC3)cc2)C[C@H]1C1CCCCC1 [LY2608204]
Glucokinase (GK)
  EC50: 42 nM
